pKi: −log10 of the molar value.
Biological target: T1, CynT2 (Escherichia coli, UniProt P61517)
T1 construct: gene can; oligomer not determined (dimer or tetramer stated for bacterial beta-CAs in general)
Assay: stopped-flow CO2 hydrase assay, phenol red
Assay type: biochemical
Conditions: not given

T1 sequence (P61517 whole entry): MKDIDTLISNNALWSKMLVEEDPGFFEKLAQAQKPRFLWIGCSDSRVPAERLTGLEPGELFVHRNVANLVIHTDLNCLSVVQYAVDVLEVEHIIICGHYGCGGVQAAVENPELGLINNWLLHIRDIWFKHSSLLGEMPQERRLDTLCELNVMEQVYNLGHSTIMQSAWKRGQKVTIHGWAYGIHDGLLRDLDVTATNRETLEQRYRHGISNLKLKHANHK

Row | SMILES | pKi
1 | NCCc1ccc(S(N)(=O)=O)cc1 [compound 6, 6] | 5.48

Same assay, conditions: read-out: KI *(nM) / CynT2

Row | SMILES | Ki [nM]
2 | Nc1ccc(S(N)(=O)=O)cc1Cl [compound 8, 8] | > 10000
3 | NS(=O)(=O)c1nnc(NS(=O)(=O)c2ccccc2)s1 [BZA, Benzolamide] | 276
4 | NS(=O)(=O)c1cc2c(cc1Cl)NCNS2(=O)=O [HCT, Hydrochlorothiazide] | 5010
5 | NS(=O)(=O)c1ccc(O)cc1 [compound 15, 15] | 6440
6 | NS(=O)(=O)c1cc(Cl)c(Cl)c(S(N)(=O)=O)c1 [DCP, Dichlorophenamide] | > 10000
7 | Nc1ccc(S(=O)(=O)Nc2nnc(S(N)(=O)=O)s2)cc1 [compound 20, 20] | 726
8 | CC(=O)N=c1sc(S(N)(=O)=O)nn1C [MZA, Methazolamide] | 480
9 | CCN[C@H]1CN(CCCOC)S(=O)(=O)c2sc(S(N)(=O)=O)cc21 [BRZ, Brinzolamide] | 2050
10 | Nc1ccc(S(N)(=O)=O)cc1 [compound 2, 2] | 790
11 | Nc1cc(C(F)(F)F)c(S(N)(=O)=O)cc1S(N)(=O)=O [compound 11, 11] | 6250
12 | NCc1ccc(S(N)(=O)=O)cc1 [compound 5, 5] | 2840
13 | CC1(C)O[C@@H]2[C@@H](CO[C@@]3(COS(N)(=O)=O)OC(C)(C)O[C@@H]23)O1 [TPM, Topiramate] | 3360
14 | Nc1cc(Cl)c(S(N)(=O)=O)cc1S(N)(=O)=O [compound 12, 12] | 4390
15 | Nc1ccc(S(N)(=O)=O)cc1Br [compound 9, 9] | 2710
16 | Cc1ccc(-c2cc(C(F)(F)F)nn2-c2ccc(S(N)(=O)=O)cc2)cc1 [CLX, Celecoxib] | 1890
17 | Cc1ccc(S(N)(=O)=O)cc1 [compound 4, 4] | 3010
18 | Nc1ccc(S(=O)(=O)NCCc2ccc(S(N)(=O)=O)cc2)cc1 [compound 24, 24] | 82
19 | NS(=O)(=O)c1cc(Cl)cc(Cl)c1O [compound 10, 10] | 8560
20 | Nc1nnc(S(N)(=O)=O)s1 [compound 13, 13] | 4120

Row | SMILES | Ki [nM]
21 | O=C1NS(=O)(=O)c2ccccc21 [SAC, Saccharin] | 6690
22 | NS(=O)(=O)NCCNc1nonc1C(=NO)Nc1ccc(F)c(Br)c1 [EPA, Epacadostat] | 2560
23 | Nc1cccc(S(N)(=O)=O)c1 [compound 1, 1] | 705
24 | CCN1CCCC1CNC(=O)c1cc(S(N)(=O)=O)ccc1OC (centres unmarked) [SLP, Sulpiride] | 97
25 | NS(=O)(=O)Cc1noc2ccccc12 [ZNS, Zonisamide] | 3190
26 | Nc1ccc(S(=O)(=O)NCc2ccc(S(N)(=O)=O)cc2)cc1 [compound 23, 23] | 322
27 | NS(=O)(=O)c1ccc(N2CCCCS2(=O)=O)cc1 [SLT, Sulthiame] | 285
28 | NS(=O)(=O)c1ccc(CO)cc1 [compound 16, 16] | 2340
29 | Nc1nccc(Nc2ccc(S(N)(=O)=O)cc2)n1 [compound 19, 19] | 416
30 | NS(=O)(=O)c1cccc(S(N)(=O)=O)c1 [compound 3, 3] | 457
31 | Cc1onc(-c2ccccc2)c1-c1ccc(S(N)(=O)=O)cc1 [VLX, Valdecoxib] | 2750
32 | NC(N)=Nc1nc(CSCCC(N)=NS(N)(=O)=O)cs1 [FAM, Famotidine] | 2770
33 | Cn1nc(S(N)(=O)=O)sc1=N [compound 14, 14] | 440
34 | NS(=O)(=O)c1ccc(CCO)cc1 [compound 17, 17] | 502
35 | Nc1ccc(S(N)(=O)=O)cc1F [compound 7, 7] | > 10000
36 | NS(=O)(=O)c1ccc(C(=O)O)cc1 [compound 18, 18] | 205
37 | NS(=O)(=O)c1ccc(S(=O)(=O)Nc2cccc3c(Cl)c[nH]c23)cc1 [IND, Indisulam] | 2390
38 | Nc1ccc(S(=O)(=O)Nc2ccc(S(N)(=O)=O)cc2)cc1 [compound 22, 22] | 93
